≈ marks a conversion by molar mass, not a printed value. Calls of active or inactive are those of the source. The rule behind the calls is not given here.
Columns and labels:
CYP1A2 = molecular target: T1, CYP1A2 (Homo sapiens, UniProt P05177); test: Inhibition of CYP1A2 (unknown origin) at 10 uM using phenacetin as substrate incubated for 10 mins in presence of NADPH by LC-MS/MS analysis relative to control; format: ADME; settings: probe phenacetin
T1 sequence (P05177 whole entry): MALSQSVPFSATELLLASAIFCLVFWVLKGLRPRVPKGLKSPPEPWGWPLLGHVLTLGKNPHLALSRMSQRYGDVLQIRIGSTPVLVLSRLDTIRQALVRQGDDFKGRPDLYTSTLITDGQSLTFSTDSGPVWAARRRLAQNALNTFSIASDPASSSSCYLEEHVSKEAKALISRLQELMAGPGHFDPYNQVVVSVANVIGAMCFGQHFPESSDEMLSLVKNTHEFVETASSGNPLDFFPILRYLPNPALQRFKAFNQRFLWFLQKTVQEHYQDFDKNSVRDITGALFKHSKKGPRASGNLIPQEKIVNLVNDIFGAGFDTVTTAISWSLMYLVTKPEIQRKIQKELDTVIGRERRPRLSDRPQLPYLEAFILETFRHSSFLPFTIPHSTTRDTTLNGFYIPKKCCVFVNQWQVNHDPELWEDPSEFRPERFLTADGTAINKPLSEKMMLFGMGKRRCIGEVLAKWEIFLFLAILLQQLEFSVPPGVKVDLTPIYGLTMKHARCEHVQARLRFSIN

hERG (KCNH2) [1] = molecular target: T2, hERG (KCNH2) (Homo sapiens, UniProt Q12809); test: Inhibition of hERG expressed in HEK293 cells at 10 uM at holding potential of -80 mV by whole cell patch clamp assay relative to control; format: toxicity, cell-based; settings: HEK293 cells expressing hERG
Hepatitis B virus [2] = test: Antiviral activity against HBV infected human HePAD38 cells assessed as reduction in intracellular capsid content upto 10 uM incubated for 6 days; format: functional, organism-based; settings: time 6.0 day
[3] = Metabolic stability in human liver assessed as intrinsic clearance preincubated for 10 mins followed by NADPH addition and measured after 60 mins by LC-MS/MS analysis; format: ADME, tissue-based; settings: time 70 min, read-out: CLH
Hepatitis B virus [4] = test: Antiviral activity against HBV infected human HePAD38 cells assessed as reduction in intracellular core protein content at 0.003 uM incubated for 6 days by Western blot analysis; format: functional, organism-based; settings: time 6.0 day
[5] = Selectivity index, ratio of CC50 for cytotoxicity against human HePAD38 cells assessed as reduction in cell viability to EC50 for antiviral activity against HBV infected human HePAD38 cells assessed as reduction of HBV DNA level; format: toxicity, cell-based; settings: read-out: Ratio CC50/EC50
CYP2D6 = CYP2D6 (Homo sapiens, UniProt P10635); test: Inhibition of CYP2D6 (unknown origin) at 10 uM using dextromethorphan as substrate incubated for 10 mins in presence of NADPH by LC-MS/MS analysis relative to control; format: ADME; settings: probe dextromethorphan
Hepatitis B virus [6] = test: Antiviral activity against HBV infected human HePAD38 cells assessed as reduction in intracellular core protein content upto 10 uM incubated for 6 days; format: functional, organism-based; settings: time 6.0 day
[7] = Metabolic stability in human liver microsome assessed as intrinsic clearance preincubated for 10 mins followed by NADPH addition and measured after 60 mins by LC-MS/MS analysis; format: ADME; settings: liver microsomes, time 70 min, read-out: CLH
[8] = Metabolic stability in human liver microsome assessed as parent compound remaining preincubated for 10 mins followed by NADPH addition and measured after 60 mins by LC-MS/MS analysis; format: ADME; settings: liver microsomes, time 70 min, read-out: Stability
[9] = Water solubility of compound in phosphate buffer at pH 2 by HPLC analysis; format: physicochemical
CYP3A = CYP3A (Homo sapiens, UniProt P08684+P20815+P24462+Q9HB55); test: Inhibition of CYP3A (unknown origin) at 10 uM using midazolam as substrate incubated for 10 mins in presence of NADPH by LC-MS/MS analysis relative to control; format: ADME, protein assay; settings: probe midazolam
CYP2C9 = CYP2C9 (Homo sapiens, UniProt P11712); test: Inhibition of CYP2C9 (unknown origin) at 10 uM using diclofenac as substrate incubated for 10 mins in presence of NADPH by LC-MS/MS analysis relative to control; format: ADME; settings: probe diclofenac
[10] = Metabolic stability in human liver microsome assessed as half life preincubated for 10 mins followed by NADPH addition and measured after 60 mins by LC-MS/MS analysis; format: ADME; settings: liver microsomes, time 70 min
CYP2C19 = CYP2C19 (Homo sapiens, UniProt P33261); test: Inhibition of CYP2C19 (unknown origin) at 10 uM using s-mephenytoin as substrate incubated for 10 mins in presence of NADPH by LC-MS/MS analysis relative to control; format: ADME; settings: probe S-mephenytoin
[11] = Water solubility of compound in phosphate buffer at pH 7 by HPLC analysis; format: physicochemical
[12] = Cytotoxicity against human HePAD38 cells assessed as reduction in cell viability by CCK-8 assay; format: toxicity, cell-based
Hepatitis B virus [13] = test: Antiviral activity against HBV infected human HePAD38 cells assessed as reduction of HBV DNA level with compound replacement for every 3 days and measured on day 6 by qPCR analysis; format: functional, organism-based
[14] = Water solubility of compound in phosphate buffer at pH 7.4 by HPLC analysis; format: physicochemical
hERG (KCNH2) [15] = molecular target: T2, hERG (KCNH2); test: Inhibition of hERG expressed in HEK293 cells at 1 uM at holding potential of -80 mV by whole cell patch clamp assay relative to control; format: toxicity, cell-based; settings: HEK293 cells expressing hERG
Hepatitis B virus [16] = test: Antiviral activity against HBV infected human HePAD38 cells assessed as reduction in intracellular core protein content at 0.016 uM incubated for 6 days by Western blot analysis; format: functional, organism-based; settings: time 6.0 day
Hepatitis B virus [17] = test: Antiviral activity against HBV infected human HePAD38 cells assessed as reduction in intracellular capsid content at 1 uM incubated for 6 days; format: functional, organism-based; settings: time 6.0 day
Hepatitis B virus [18] = test: Antiviral activity against HBV infected human HePAD38 cells assessed as reduction in intracellular core protein content incubated for 6 days by Western blot analysis; format: functional, organism-based; settings: dose 1.0 µM, time 6.0 day
Hepatitis B virus [19] = test: Antiviral activity against HBV infected human HePAD38 cells assessed as reduction in intracellular core protein content at 0.08 uM incubated for 6 days by Western blot analysis; format: functional, organism-based; settings: time 6.0 day
Hepatitis B virus [20] = test: Antiviral activity against HBV infected in human HepG2.2.15 cells assessed as reduction in extracellular HBV DNA level incubated for 8 days by Southern blotting; format: functional, organism-based; settings: HepG2.2.15, 192 h

T2 sequence (Q12809 whole entry): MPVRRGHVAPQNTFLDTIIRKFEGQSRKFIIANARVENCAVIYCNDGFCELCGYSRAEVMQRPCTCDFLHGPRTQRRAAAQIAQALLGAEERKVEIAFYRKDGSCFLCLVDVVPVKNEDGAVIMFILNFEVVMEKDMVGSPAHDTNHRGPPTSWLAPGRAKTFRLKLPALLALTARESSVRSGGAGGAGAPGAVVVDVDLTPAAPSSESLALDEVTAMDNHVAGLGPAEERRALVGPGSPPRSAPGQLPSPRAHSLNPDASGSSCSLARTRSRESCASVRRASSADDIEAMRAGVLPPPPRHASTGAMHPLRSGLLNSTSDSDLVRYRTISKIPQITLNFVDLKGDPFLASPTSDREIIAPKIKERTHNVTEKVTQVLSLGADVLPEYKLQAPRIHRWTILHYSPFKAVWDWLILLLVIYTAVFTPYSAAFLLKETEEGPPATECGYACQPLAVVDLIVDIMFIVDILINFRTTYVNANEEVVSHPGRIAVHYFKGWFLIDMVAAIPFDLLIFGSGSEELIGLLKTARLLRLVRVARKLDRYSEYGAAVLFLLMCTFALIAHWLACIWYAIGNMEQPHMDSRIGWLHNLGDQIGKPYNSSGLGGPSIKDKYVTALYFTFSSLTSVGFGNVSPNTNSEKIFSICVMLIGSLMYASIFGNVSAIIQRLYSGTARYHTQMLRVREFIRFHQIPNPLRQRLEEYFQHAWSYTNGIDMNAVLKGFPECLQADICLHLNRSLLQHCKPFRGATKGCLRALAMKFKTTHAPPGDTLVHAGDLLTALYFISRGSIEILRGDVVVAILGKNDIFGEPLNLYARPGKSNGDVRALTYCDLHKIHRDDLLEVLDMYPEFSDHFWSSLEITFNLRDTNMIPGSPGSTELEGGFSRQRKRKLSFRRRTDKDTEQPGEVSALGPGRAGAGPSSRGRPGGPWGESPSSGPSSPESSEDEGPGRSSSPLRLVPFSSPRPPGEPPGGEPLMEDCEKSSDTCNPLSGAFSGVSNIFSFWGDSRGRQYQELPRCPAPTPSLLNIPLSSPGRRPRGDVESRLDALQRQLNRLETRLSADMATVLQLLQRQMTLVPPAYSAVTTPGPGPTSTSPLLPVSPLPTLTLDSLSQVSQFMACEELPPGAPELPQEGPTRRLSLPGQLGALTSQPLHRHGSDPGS
CYP2C19, sequence (P33261 whole entry): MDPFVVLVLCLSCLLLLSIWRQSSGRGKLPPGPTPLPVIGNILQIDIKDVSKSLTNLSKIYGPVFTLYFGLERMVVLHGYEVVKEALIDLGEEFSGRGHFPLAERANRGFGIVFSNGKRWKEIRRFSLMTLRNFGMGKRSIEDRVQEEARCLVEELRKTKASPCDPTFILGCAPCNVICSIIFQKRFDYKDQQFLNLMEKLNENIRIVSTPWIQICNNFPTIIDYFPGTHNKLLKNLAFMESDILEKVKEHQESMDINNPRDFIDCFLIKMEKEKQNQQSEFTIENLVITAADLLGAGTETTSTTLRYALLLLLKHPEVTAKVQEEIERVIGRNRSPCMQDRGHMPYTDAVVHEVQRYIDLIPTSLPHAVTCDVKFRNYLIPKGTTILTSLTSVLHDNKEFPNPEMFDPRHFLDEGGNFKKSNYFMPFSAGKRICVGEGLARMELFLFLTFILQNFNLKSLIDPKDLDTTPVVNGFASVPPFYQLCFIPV
CYP2C9, sequence (P11712 whole entry): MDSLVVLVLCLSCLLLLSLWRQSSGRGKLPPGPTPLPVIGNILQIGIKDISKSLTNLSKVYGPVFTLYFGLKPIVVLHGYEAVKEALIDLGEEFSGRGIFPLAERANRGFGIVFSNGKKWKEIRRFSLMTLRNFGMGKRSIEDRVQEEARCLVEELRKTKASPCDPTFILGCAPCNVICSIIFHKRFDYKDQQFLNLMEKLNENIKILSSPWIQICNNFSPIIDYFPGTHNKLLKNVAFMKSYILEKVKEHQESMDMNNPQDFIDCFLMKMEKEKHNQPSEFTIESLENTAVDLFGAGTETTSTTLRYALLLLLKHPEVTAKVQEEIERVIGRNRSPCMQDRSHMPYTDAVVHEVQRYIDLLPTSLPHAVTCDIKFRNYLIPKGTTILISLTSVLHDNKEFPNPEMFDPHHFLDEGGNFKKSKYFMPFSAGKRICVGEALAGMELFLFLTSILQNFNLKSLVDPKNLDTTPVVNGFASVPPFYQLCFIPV
CYP2D6, sequence (P10635 whole entry): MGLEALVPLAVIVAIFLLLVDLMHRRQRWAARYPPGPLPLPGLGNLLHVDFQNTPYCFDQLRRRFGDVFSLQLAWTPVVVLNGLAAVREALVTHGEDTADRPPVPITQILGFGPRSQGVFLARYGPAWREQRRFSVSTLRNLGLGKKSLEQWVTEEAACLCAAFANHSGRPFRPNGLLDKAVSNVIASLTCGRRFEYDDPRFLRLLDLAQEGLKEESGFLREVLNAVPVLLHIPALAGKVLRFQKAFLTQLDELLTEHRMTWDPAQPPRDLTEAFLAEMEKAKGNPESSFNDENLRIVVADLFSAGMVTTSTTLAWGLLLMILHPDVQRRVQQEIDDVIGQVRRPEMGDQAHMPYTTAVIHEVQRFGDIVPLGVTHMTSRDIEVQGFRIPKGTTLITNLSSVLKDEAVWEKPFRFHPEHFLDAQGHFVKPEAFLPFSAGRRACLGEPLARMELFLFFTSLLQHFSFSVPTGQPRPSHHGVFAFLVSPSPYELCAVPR

Row | SMILES | inhibition at 10 min, 10 µM (CYP1A2) | CLint scaled [3] | inhibition at 10 min, 10 µM (CYP2D6) | microsomal CLint [7] | remaining at 1 h [8] | solubility [9] | inhibition at 10 min, 10 µM (CYP2C9) | half-life [10] | inhibition at 10 min, 10 µM (CYP2C19) | solubility [11] | CC50 [12] | EC50 (Hepatitis B virus [13]) | solubility [14] | other results
1 | O=c1cc(-c2ccccc2)oc2c1ccc1ccccc12 [ALPHA-NAPHTHOFLAVONE] | 88.7% | – | – | – | – | – | – | – | – | – | – | – | – | –
2 | CCOC(=O)C1=C(CN2CCN(C(/C=C/c3ccccc3)C(=O)O)CC2)NC(c2nccs2)=NC1c1ccc(F)cc1Br (stereo not drawn) | 0% | 13.3 mL/min/kg | 12.4% | 14.8 µL/min/mg | 64.6% | 361 µg/mL (≈ 541 µM) | 26.2% | 1.56 h | 18.1% | 1.96 µg/mL (≈ 2.93 µM) | 22400 nM | 21 nM | < 0.58 µg/mL | inhibition at 10 µM (hERG (KCNH2) [1]): 93.4%; Activity (Hepatitis B virus [2]): Active; Activity (Hepatitis B virus [4]): Active; selectivity ratio [5]: 1060; Activity (Hepatitis B virus [6]): Active; inhibition at 10 min, 10 µM (CYP3A): 44.6%; inhibition at 1 µM (hERG (KCNH2) [15]): 11.7%
3 | C=C[C@H]1C[N@@]2CC[C@H]1C[C@@H]2[C@@H](O)c1ccnc2ccc(OC)cc12 [QUINIDINE] | – | – | 95.6% | – | – | – | – | – | – | – | – | – | – | –
4 | CCOC(=O)C1=C(CN2CCN(C(C(=O)O)c3cccc([N+](=O)[O-])c3)CC2)NC(c2nccs2)=NC1c1ccc(F)cc1Br (stereo not drawn) | 8.9% | 11.5 mL/min/kg | 34% | 12.8 µL/min/mg | 68% | 375 µg/mL (≈ 545 µM) | 31.6% | 1.8 h | 15.3% | 6.85 µg/mL (≈ 9.96 µM) | 29200 nM | 20 nM | 25.5 µg/mL (≈ 37.1 µM) | inhibition at 10 µM (hERG (KCNH2) [1]): 72.7%; Activity (Hepatitis B virus [2]): Active; selectivity ratio [5]: 1220; Activity (Hepatitis B virus [6]): Active; inhibition at 10 min, 10 µM (CYP3A): 17.1%; Activity (Hepatitis B virus [16]): Active; inhibition at 1 µM (hERG (KCNH2) [15]): 15.7%
5 | Nc1ccc(S(=O)(=O)Nc2ccnn2-c2ccccc2)cc1 [SULFAPHENAZOLE] | – | – | – | – | – | – | 87.1% | – | – | – | – | – | – | –
6 | CC[C@@]1(c2ccccc2)NC(=O)N(Cc2ccccc2)C1=O | – | – | – | – | – | – | – | – | 89.4% | – | – | – | – | –
7 | Nc1ccn([C@@H]2CS[C@H](CO)O2)c(=O)n1 [LAMIVUDINE] | – | – | – | – | – | – | – | – | – | – | > 50000 nM | 90 nM | – | Activity (Hepatitis B virus [17]): inactive
8 | CCOC(=O)C1=C(CN2CCOCC2)NC(c2nccs2)=NC1c1ccc(F)cc1Br (stereo not drawn) | – | 596 mL/min/kg | – | 663 µL/min/mg | 0.1% | 215 µg/mL (≈ 423 µM) | – | 0.035 h | – | < 1.19 µg/mL | – | 7 nM | < 1.19 µg/mL | Activity (Hepatitis B virus [18]): Dose-Dependent Effect; Activity (Hepatitis B virus [19]): Active; EC50 (Hepatitis B virus [20]): 12 nM

Reference: ChEMBL document CHEMBL5329208 (RSC Med Chem, 2023)
